Assays:
[1] = system: matrix metalloprotease-1 (MMP-1); assay: MMP-1 inhibitory effect: free MMP-1 in media of UV-irradiated HS68 fibroblasts (kit, Amersham RPN2610); assay type: cell-based; settings: 5 μM, UV 30 mJ, treated twice for 48 hours, corrected with control without test substance
Protocol: In order to confirm the inhibitory effect of Ganoderma lucidum extracts extracted with the aqueous cyclodextrin solution according to the present disclosure on matrix metalloprotease-1 (MMP-1) expression increased by ultraviolet rays, fibroblasts cells (HS68) were seeded at a concentration of 0.75*10^5 in each well of a 12 well plate and made to be a starvation state for 24 hours, then washed with phosphate buffered saline and irradiated with UV (30 mJ). Subsequently, as a positive control, 1, 10, and 50 ppm of Ganoderma lucidum extracts extracted with 5 μM of retinoic Acid (RA) and an aqueous cyclodextrin solution were treated twice for 48 hours, and the amount of free MMP-1 in the media was measured using a kit (Amersham, RPN2610).

collagenase = assay: Collagenase production/expression in human fibroblasts (antibody-based absorbance at 405 nm); assay type: cell-based; settings: 5 μM, 24 hours, untreated group = 100
Protocol: The inhibitory ability of Ganoderma lucidum extracts extracted with the aqueous cyclodextrin solution according to the present disclosure on collagenase production was measured in comparison with retinoic acid. Human fibroblasts were added at 5,000 cells/well in a 96-well microtiter plate containing Dulbecco's Modified Eagle's Media (DMEM) medium containing 2.5% fetal bovine serum and incubated in an incubator (5% CO2, 37° C.) until the growth reached 70 to 80%. Then, the Ganoderma lucidum extracts, which were extracted using the 1% β-CD aqueous cyclodextrin solution in combination with ultrasonic extraction, were treated with the cells at a concentration of 100 μg/ml for 24 hours, and then the cell culture solution was collected.
Then, the degree of collagenase production in the thus-collected cell culture solution was measured using a commercially available collagenase measuring instrument (GE Healthcare Life Sciences). […]
The absorbance of the yellowish 96-well plate was measured at 405 nm using an absorptiometer, and the expression level of collagenase was calculated by Calculation Equation 1 below. In particular, the reaction absorbance of the collected cell culture solution in the untreated group was taken as the absorbance of the control group. […]
A: Absorbance of the test substance-treated cell group
B: Absorbance of control group […]

Question: `CC1=C(/C=C/C(C)=C/C=C/C(C)=C/C(=O)O)C(C)(C)CCC1` [Retinoic acid, retinoic Acid] was tested. Which “Extracellular MMP-1 (% of control)” value [1] did it give?
Answer: 66.2% of control

Question: What about the “Degree of Collagenase Expression (%)” value (collagenase) of the same compound?
Answer: 75.0%

Reference: patent US11433019B2, “Ganoderma lucidum extract-preparing method using eco-friendly extraction technique, Ganoderma lucidum extract prepared thereby, and anti-aging cosmetic composition comprising same extract” (AMOREPACIFIC CORPORATION, priority 2017, dated 2022)
